In assay [1] the test system is human lung adenocarcinoma A549. In words: Trypan blue exclusion cytotoxicity assay.
Assay [2] concerns chronic myeloid leukemia K-562. In words: Trypan blue exclusion cytotoxicity assay.
Where [3] appears, read: read-out: A549 (IC50 μM), trypan blue exclusion, 24 h, mean ± SD.
[4] abbreviates: read-out: K-562 (IC50 μM), trypan blue exclusion, 24 h, mean ± SD.
Where [5] appears, read: Homo sapiens, A549, 24 h, read-out: A549 (IC50 μM), trypan blue exclusion, mean ± SD.
Where [6] appears, read: Homo sapiens, K562, 24 h, read-out: K-562 (IC50 μM), trypan blue exclusion, mean ± SD.

Read-outs that look alike come from different tables or passages of the source.

As a reminder, the IC50 is the point on the concentration scale where inhibition reaches its midpoint. `N.N.[Cl][Pt][Cl]` [Cisplatin, reference compound]: the IC50 was found to be 15.3 ± 1.87 µM in assay [1] (setting [3]) and 2.71 ± 0.34 µM in assay [2] (setting [4]).

Take `Nc1ccc(C(/C=C\c2ccccc2)=NNC(=O)c2cc(-c3ccccc3)nc3ccccc23)cc1` [Compound 9a, N’-((Z)-1-(4-Aminophenyl)-3-phenylallylidene)-2-phenylquinoline-4-carbohydrazide]: the IC50 in assay [1] (setting [5]) is greater than 100 µM; in assay [2] (setting [6]) it was 83 µM; in assay [2] (setting [4]), 82.8 ± 3.24 µM.

For `Nc1ccc(C(/C=C\c2ccccc2)=NNC(=O)c2cc(-c3ccc(Cl)cc3)nc3ccccc23)cc1` [Compound 9b, N’-((Z)-1-(4-Aminophenyl)-3-phenylallylidene)-2-(4-chlorophenyl)quinoline-4-carbohydrazide], the IC50 in assay [1] (setting [5]) was found to be 17.6 ± 2.5 µM; in assay [2] (setting [6]), 8.96 ± 1.06 µM.

Regarding `COc1ccc(-c2cc(C(=O)NN=C(/C=C\c3ccccc3)c3ccc(N)cc3)c3ccccc3n2)cc1` [Compound 9c, N’-((Z)-1-(4-Aminophenyl)-3-phenylallylidene)-2-(4-methoxyphenyl)quinoline-4-carbohydrazide], the IC50 in assay [1] (setting [5]) was 16.4 ± 1.3 µM; in assay [2] (setting [6]) it was 5.37 ± 0.31 µM.

For `Cc1ccc(-c2cc(C(=O)NN=C(/C=C\c3ccccc3)c3ccc(N)cc3)c3ccccc3n2)cc1` [Compound 9d, N’-((Z)-1-(4-Aminophenyl)-3-phenylallylidene)-2-(4-methylphenyl)quinoline-4-carbohydrazide], the results for the IC50 in assay [1] (setting [5]), in assay [1] (setting [3]) and in assay [2] (setting [6]) were 11 µM, 11.2 ± 0.52 µM and 6.98 ± 0.92 µM, respectively.

`COc1ccc2nc(-c3ccc(Cl)cc3)cc(C(=O)NN=C(/C=C\c3ccccc3)c3ccc(N)cc3)c2c1` [Compound 9e, N’-((Z)-1-(4-Aminophenyl)-3-phenylallylidene)-2-(4-chlorophenyl)-6-methoxyquinoline-4-carbohydrazide]: the concentration for half-maximal inhibition (IC50) stood at 19.2 ± 1.85 µM in assay [1] (setting [5]) and 5.09 ± 0.19 µM in assay [2] (setting [6]).

With `COc1ccc(-c2cc(C(=O)NN=C(/C=C\c3ccccc3)c3ccc(N)cc3)c3cc(OC)ccc3n2)cc1` [Compound 9f, N’-((Z)-1-(4-Aminophenyl)-3-phenylallylidene)-2-(4-methoxyphenyl)-6-methoxyquinoline-4-carbohydrazide], the concentration for half-maximal inhibition (IC50) stood at 91 µM in assay [1] (setting [5]), 91.4 ± 4.54 µM in assay [1] (setting [3]), 81 µM in assay [2] (setting [6]) and 81.2 ± 3.14 µM in assay [2] (setting [4]).

Consider `Nc1ccc(C(/C=C\c2ccc(Cl)cc2)=NNC(=O)c2cc(-c3ccccc3)nc3ccccc23)cc1` [Compound 9g, N’-((Z)-1-(4-Aminophenyl)-3-(4-chlorophenyl)allylidene)-2-phenylquinoline-4-carbohydrazide], for which the IC50 worked out at 18.5 µM in assay [1] (setting [5]), 18.5 ± 0.52 µM in assay [1] (setting [3]), 15.2 µM in assay [2] (setting [6]) and 15.2 ± 2.15 µM in assay [2] (setting [4]).

In the case of `Nc1ccc(C(/C=C\c2ccc(Cl)cc2)=NNC(=O)c2cc(-c3ccc(Cl)cc3)nc3ccccc23)cc1` [Compound 9h, N’-((Z)-1-(4-Aminophenyl)-3-(4-chlorophenyl)allylidene)-2-(4-chlorophenyl)quinoline-4-carbohydrazide], the IC50 was determined as 9 µM in assay [1] (setting [5]), 9.46 ± 0.63 µM in assay [1] (setting [3]) and 4.28 ± 0.34 µM in assay [2] (setting [6]).

Turning to `COc1ccc2nc(-c3ccc(Cl)cc3)cc(C(=O)NN=C(/C=C\c3ccc(Cl)cc3)c3ccc(N)cc3)c2c1` [Compound 9k, N’-((Z)-1-(4-Aminophenyl)-3-(4-chlorophenyl)allylidene)-2-(4-chlorophenyl)-6-methoxyquinoline-4-carbohydrazide], the IC50 in assay [1] (setting [5]) is greater than 100 µM; in assay [2] (setting [6]), 15.2 ± 1.49 µM.

As to `COc1ccc(-c2cc(C(=O)NN=C(/C=C\c3ccc(Cl)cc3)c3ccc(N)cc3)c3cc(OC)ccc3n2)cc1` [Compound 9l, N’-((Z)-1-(4-Aminophenyl)-3-(4-chlorophenyl)allylidene)-2-(4-methoxyphenyl)-6-methoxyquinoline-4-carbohydrazide], the IC50 in assay [1] (setting [5]) is greater than 100 µM; in assay [2] (setting [6]), 5.17 ± 0.18 µM.

Turning to `COc1ccc(/C=C\C(=NNC(=O)c2cc(-c3ccccc3)nc3ccccc23)c2ccc(N)cc2)cc1` [Compound 9m, N’-((Z)-1-(4-Aminophenyl)-3-(4-methoxyphenyl)allylidene)-2-phenylquinoline-4-carbohydrazide], the values for the IC50 in assay [1] (setting [5]) and in assay [2] (setting [6]) were greater than 100 µM and 60.7 ± 2.67 µM, respectively.

With `COc1ccc(/C=C\C(=NNC(=O)c2cc(-c3ccc(Cl)cc3)nc3ccccc23)c2ccc(N)cc2)cc1` [Compound 9n, N’-((Z)-1-(4-Aminophenyl)-3-(4-methoxyphenyl)allylidene)-2-(4-chlorophenyl)quinoline-4-carbohydrazide], the concentration for half-maximal inhibition (IC50) in assay [1] (setting [5]) amounted to 48.3 ± 1.69 µM; in assay [2] (setting [6]), 14.4 ± 0.94 µM.

As to `COc1ccc(/C=C\C(=NNC(=O)c2cc(-c3ccc(OC)cc3)nc3ccccc23)c2ccc(N)cc2)cc1` [Compound 9o, N’-((Z)-1-(4-Aminophenyl)-3-(4-methoxyphenyl)allylidene)-2-(4-methoxyphenyl)quinoline-4-carbohydrazide], the half-maximal inhibitory concentration (IC50) in assay [1] (setting [5]) was 46.5 ± 2.21 µM; in assay [2] (setting [6]), 10.9 ± 0.74 µM.

For the compound `COc1ccc(/C=C\C(=NNC(=O)c2cc(-c3ccc(C)cc3)nc3ccccc23)c2ccc(N)cc2)cc1` [Compound 9p, N’-((Z)-1-(4-Aminophenyl)-3-(4-methoxyphenyl)allylidene)-2-(4-methylphenyl)quinoline-4-carbohydrazide], the IC50 in assay [1] (setting [5]) was determined as 33.9 ± 2.15 µM; in assay [2] (setting [6]), 18 ± 0.97 µM.

Take `COc1ccc(/C=C\C(=NNC(=O)c2cc(-c3ccc(Cl)cc3)nc3ccc(OC)cc23)c2ccc(N)cc2)cc1` [Compound 9q, N’-((Z)-1-(4-Aminophenyl)-3-(4-methoxyphenyl)allylidene)-2-(4-chlorophenyl)-6-methoxyquinoline-4-carbohydrazide]: the results for the IC50 in assay [1] (setting [5]) and in assay [2] (setting [6]) were 97.2 ± 2.36 µM and 68.1 ± 2.87 µM, respectively.

`COc1ccc(/C=C\C(=NNC(=O)c2cc(-c3ccc(OC)cc3)nc3ccc(OC)cc23)c2ccc(N)cc2)cc1` [Compound 9r, N’-((Z)-1-(4-Aminophenyl)-3-(4-methoxyphenyl)allylidene)-2-(4-methoxyphenyl)-6-methoxyquinoline-4-carbohydrazide]: the IC50 in assay [1] (setting [5]) turned out to be 67.4 ± 2.29 µM; in assay [2] (setting [6]) it was 4.45 ± 0.64 µM.

As to `COc1ccc2nc(-c3ccc(Cl)cc3)cc(C(=O)NN=C(/C=C\c3ccc(OC)c(OC)c3)c3ccc(N)cc3)c2c1` [Compound 9s, N’-((Z)-1-(4-Aminophenyl)-3-(3,4-dimethoxyphenyl)allylidene)-2-(4-chlorophenyl)-6-methoxyquinoline-4-carbohydrazide], the IC50 in assay [1] (setting [5]) and in assay [2] (setting [6]) was greater than 100 µM each time.

Take `COc1ccc(-c2cc(C(=O)NN=C(/C=C\c3ccc(OC)c(OC)c3)c3ccc(N)cc3)c3cc(OC)ccc3n2)cc1` [Compound 9t, N’-((Z)-1-(4-Aminophenyl)-3-(3,4-dimethoxyphenyl)allylidene)-2-(4-methoxyphenyl)-6-methoxyquinoline-4-carbohydrazide]: the half-inhibitory concentration (IC50) is 31.6 ± 2.02 µM in assay [1] (setting [5]) and 23.1 ± 2.15 µM in assay [2] (setting [6]).

On to `O=c1cc(N2CCOCC2)oc2c(-c3ccccc3)cccc12` [LY294002, reference compound], for which the concentration for half-maximal inhibition (IC50) in assay [1] (setting [5]) stood at 3.52 µM; in assay [2] (setting [6]) it was 2.68 µM.

Values taken from paper PMC6931042 (Bioorganic chemistry, 2018).
